Experimental findings from PMC3767936 (Journal of cellular biochemistry, 2010) are described below.

For this experiment, the target named is T1, 20S proteasome (chymotrypsin-like activity) (Oryctolagus cuniculus, UniProt G1T4Q9).
T1 sequence (G1T4Q9 1-263): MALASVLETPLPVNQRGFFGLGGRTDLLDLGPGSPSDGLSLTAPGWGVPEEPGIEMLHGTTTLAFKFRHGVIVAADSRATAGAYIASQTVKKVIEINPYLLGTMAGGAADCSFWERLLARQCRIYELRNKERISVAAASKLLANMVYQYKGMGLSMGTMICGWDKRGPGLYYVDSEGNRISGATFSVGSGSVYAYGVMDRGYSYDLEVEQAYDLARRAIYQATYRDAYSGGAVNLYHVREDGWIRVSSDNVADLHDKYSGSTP
The experiment in a line: fluorogenic Suc-LLVY-AMC hydrolysis by purified […] proteasome, […] h at […]°C. The class given is biochemical.

By IC50 is commonly meant the concentration at which inhibition is half-maximal. The molecule `CCOC(=O)CN(C)C1=[S+][Au-]([Br])([Br])[S]1` [AUL12, [AuBr2(ESDT)]] yielded a half-inhibitory concentration (IC50) of 1.13 µM.
